Starred links: 1 amine or outer side, 2 acyl side, 3 side chain; linkers in the order of their positions; H or OH if unused. Non-standard residues stand in square brackets, D forms with d. Residues, ends and D or L forms follow the SMILES beside them. *: point of attachment. Gly(N-(3-decanoyloxypropyl)) = CCCCCCCCCC(=O)OCCCNCC(=O)O; N(3-lauroyloxypropyl)Gly = CCCCCCCCCCCC(=O)OCCCNCC(=O)O; N(2-decanoyloxyethyl)Gly = CCCCCCCCCC(=O)OCCNCC(=O)O; N(3-imidazol-1-ylpropyl)Gly = O=C(O)CNCCCn1ccnc1; Gly(N-3-morpholinopropyl) = O=C(O)CNCCCN1CCOCC1; N(2-ethylhexyl)Gly = CCCCC(CC)CNCC(=O)O; X2 = CCCCCCC(CCCC)CN(CC(=O)[*:2])[*:1]; N(CH(CH2OH)2)Gly = O=C(O)CNC(CO)CO; N(octyl)Gly = CCCCCCCCNCC(=O)O; NHexGly = CCCCCCNCC(=O)O; For = O=C*
What was measured:
[1] = Peptoid quantity remaining in liver by HPLC-TOF mass spectrometry; assay type: in vivo; details: liver homogenate
Experimental: Peptoid quantity in liver was determined via high-performance liquid chromatography coupled with time-of-flight mass spectrometer (HPLC-TOF). The entire liver was weighed, and then two sections were isolated using a provided biopsy punch for liver homogenization. Liver homogenate sample was prepared by resuspending 20 mg liver tissue in 400 μL extraction solvent (IPA/MeOH=8/2) containing an internal standard (400 pg/μL) followed by bead homogenization (45 sec per cycle for 3-4 cycles). Homogenized samples were centrifuged at 12,000 rpm for 8 min at 6 °C. The resulting supernatant was collected and stored at −20 °C for further LC analysis. 5 μL of the resulting supernatant sample from solid or liquid tissue was injected into a BEH C8 column on an Agilent 1290 Infinity II liquid chromatograph coupled with an Agilent 6230 LC-TOF system. Concentrations of peptoids were determined by a linear calibration curve (linear range:0.2-50 μg/g for solid tissue). Standard calibration curve solutions were prepared by spiking untreated liver followed by homogenization and centrifugation.

firefly luciferase = experiment: In vivo firefly luciferase expression after intravenous injection of fLuc mRNA delivery vehicles (IVIS imaging); parameters: species or system female Balb/c mice; details: for Total Flux (luciferase expression): fLuc mRNA, intravenous, Balb/c mice; for Total Flux: mice, 2.5 ug fLuc mRNA intravenously, 6 hours post-injection
In short: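 Read-out is total photon flux per region of interest, from whole-body IVIS images taken 10 minutes after IP D-luciferin (30 mg/mL, 10 μL/g) and from excised organs. Female Balb/c mice aged 6-8 weeks received 2.5 ug fLuc mRNA Nutshells intravenously 6 hours before imaging.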

mRNA = mRNA encapsulation (modified Quant-iT RiboGreen assay); assay type: physicochemical; details: for mean percent encapsulation of RNA: RiboGreen, without vs with Triton X-100; for % Encapsulation: mRNA
In short: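 Encapsulated fraction was calculated by comparing RiboGreen signal (excitation 485 nm, emission 530 nm) of intact particles with that of particles lysed by a 10-min Triton X-100 treatment. Total mRNA concentration was taken from the lysed samples.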

[2] = Delivery vehicle size and polydispersity by dynamic light scattering; assay type: physicochemical
In short: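 Dynamic light scattering in PBS gave size and polydispersity of peptoid LNPs. These were dialyzed overnight at 4 °C into tris-sucrose buffer pH 7.4 after microfluidic 1:3 volume mixing of mRNA in pH 5.0 citrate with ethanol lipids (peptoid:DSPC:cholesterol:DMG-PEG2000 20:1.79:7.16:1.84 w/w).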

hEPO = experiment: Quantification of hEPO in serum after IV injection of mRNA (Human EPO ELISA); assay type: in vivo; details: Balb/c mice, 2.5 μg mRNA IV, serum after 6 hours
In short: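 Balb/c mice received 2.5 μg mRNA encoding human EPO by IV injection; serum was collected after 6 hours. hEPO was measured by sandwich ELISA (biotin-conjugate, streptavidin-HRP, TMB, A450) against kit standards (mIU/mL) and an external standard (ng/mL), with values interpolated and corrected for dilution.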

luciferase = experiment: Luciferase expression after local (intramuscular or subcutaneous) administration of mRNA; assay type: in vivo; details: mRNA 0.01 mpk, 6 hours; for IM Flux: intramuscular; for SC Flux: subcutaneous
In short: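 Bioluminescence read 6 hours after fLuc mRNA dosing (peptoid Nutshells; 0.01 mpk S.C. or I.M., 0.1 mpk intratumoral) in female Balb/c mice aged 6-8 weeks. D-luciferin injected IP, whole-body imaging after 10 minutes, then organ imaging; total photon flux per region of interest.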

[3] = DLS in PBS, peptoid:DSPC:Cholesterol:DMG-PEG2000 weight ratio 20:1.79:7.16:1.84, mRNA

Structure (SMILES)	% of injected dose remaining in liver [1]	Total Flux (luciferase expression) (firefly luciferase; formulation recipe O3)	Total Flux (luciferase expression) (firefly luciferase; formulation recipe O5)	Total Flux (firefly luciferase)	mean percent encapsulation of RNA (mRNA)	% Encapsulation (mRNA; formulation recipe O3)	% Encapsulation (mRNA; formulation recipe O5)	PDI [2, 3]	Particle Size [2, 3]	Particle Size ([2]; formulation recipe O3)	Particle Size ([2]; formulation recipe O5)	hEPO (hEPO)	IM Flux (luciferase)	SC Flux (luciferase)
CCCCCCCCCC(=O)OCCN(CC(N)=O)C(=O)CN(CC(CC)CCCC)C(=O)CN(CCOC(=O)CCCCCCCCC)C(=O)CN(CCOC(=O)CCCCCCCCC)C(=O)CN(CC(CC)CCCC)C(=O)CN(CCOC(=O)CCCCCCCCC)C(=O)CNC(CO)CO (centres unmarked) [Compound 56] (H-[N(CH(CH2OH)2)Gly][N(2-decanoyloxyethyl)Gly][N(2-ethylhexyl)Gly][N(2-decanoyloxyethyl)Gly][N(2-decanoyloxyethyl)Gly][N(2-ethylhexyl)Gly][N(2-decanoyloxyethyl)Gly]-NH2)	24.83%	5.66E+08 p/s	6.97E+08 p/s	2.42E+09 p/s	23.8%	86.9%	89.6%	0.234	102.4 nm	57.9 nm	62.4 nm	551 ng/mL	5.78E+07 p/s	8.24E+07 p/s
CCCCCCCCCC(=O)OCCCN(CC(=O)N(CC(=O)N(CC(=O)N(CCCOC(=O)CCCCCCCCC)CC(=O)N(CC(N)=O)CC(CCCC)CCCCCC)CC(CC)CCCC)CC(CCCC)CCCCCC)C(=O)CN(CC(CC)CCCC)C(=O)CNC(CO)CO (centres unmarked) [Compound 61] (H-[N(CH(CH2OH)2)Gly][N(2-ethylhexyl)Gly][Gly(N-(3-decanoyloxypropyl))][X2][N(2-ethylhexyl)Gly][Gly(N-(3-decanoyloxypropyl))][X2]-NH2)	13.39%			1.96E+09 p/s	95.1%			0.081	75.4 nm			428 ng/mL	1.45E+08 p/s	1.99E+08 p/s
CCCCCCCCCC(=O)OCCCN(CC(N)=O)C(=O)CN(CC(CC)CCCC)C(=O)CN(CCCOC(=O)CCCCCCCCC)C(=O)CN(CCCOC(=O)CCCCCCCCC)C(=O)CN(CCCOC(=O)CCCCCCCCC)C(=O)CN(CC(CC)CCCC)C(=O)CNC(CO)CO (centres unmarked) [Compound 103] (H-[N(CH(CH2OH)2)Gly][N(2-ethylhexyl)Gly][Gly(N-(3-decanoyloxypropyl))][Gly(N-(3-decanoyloxypropyl))][Gly(N-(3-decanoyloxypropyl))][N(2-ethylhexyl)Gly][Gly(N-(3-decanoyloxypropyl))]-NH2)	bdl			8.56E+09 p/s	76.8%			0.111	81.5 nm			961 ng/mL	1.93E+08 p/s	7.28E+08 p/s
CCCCCCCCCCCC(=O)OCCCN(CC(=O)N(CC(=O)N(CC(=O)N(CCCn1ccnc1)CC(=O)N(CC(=O)N(CC(=O)N(CCCOC(=O)CCCCCCCCCCC)CC(=O)N(CC(N)=O)CC(CC)CCCC)Cc1ccco1)CC(CC)CCCC)CC(CC)CCCC)Cc1ccco1)C(=O)CN(C=O)CC(CC)CCCC (centres unmarked) [Compound 100]	19.76%			2.32E+08 p/s	68.4%			0.103	109.3 nm			59.4 ng/mL	4.86E+07 p/s	6.16E+07 p/s
CCCCCCCCCCCC(=O)OCCCN(CC(=O)N(CC(=O)N(CCCCCC)CC(=O)N(CCCOC(=O)CCCCCCCCCCC)CC(=O)N(CC(=O)N(CCCCCC)CC(N)=O)CC(CC)CCCC)CC(CC)CCCC)C(=O)CN(C=O)CCCN1CCOCC1 (centres unmarked) [Compound 70] (For-[Gly(N-3-morpholinopropyl)][N(3-lauroyloxypropyl)Gly][N(2-ethylhexyl)Gly][NHexGly][N(3-lauroyloxypropyl)Gly][N(2-ethylhexyl)Gly][NHexGly]-NH2)	8.06%			1.04E+09 p/s	77.2%			0.082	101.3 nm			201 ng/mL	4.46E+06 p/s	2.02E+08 p/s
CCCCCCCCCC(=O)OCCCN(CC(=O)N(CC(N)=O)CC(CC)CCCC)C(=O)CN(CCCCCCCC)C(=O)CN(CC(CC)CCCC)C(=O)CN(CCCOC(=O)CCCCCCCCC)C(=O)CN(CCCCCCCC)C(=O)CN(C=O)CCCN1CCOCC1 (centres unmarked) [Compound 110] (For-[Gly(N-3-morpholinopropyl)][N(octyl)Gly][Gly(N-(3-decanoyloxypropyl))][N(2-ethylhexyl)Gly][N(octyl)Gly][Gly(N-(3-decanoyloxypropyl))][N(2-ethylhexyl)Gly]-NH2)	5.52%			2.54E+09 p/s	50.5%			0.088	102.9 nm			333 ng/mL	1.43E+08 p/s	2.34E+08 p/s
CCCCCCCCCC(=O)OCCCN(CC(=O)N(CC(=O)N(CC(=O)N(CCCOC(=O)CCCCCCCCC)CC(=O)N(CC(N)=O)CC(CC)CCCC)CC(CC)CCCC)CC(CC)CCCC)C(=O)CN(CC(CC)CCCC)C(=O)CNCCCn1ccnc1 (centres unmarked) [Compound 107] (H-[N(3-imidazol-1-ylpropyl)Gly][N(2-ethylhexyl)Gly][Gly(N-(3-decanoyloxypropyl))][N(2-ethylhexyl)Gly][N(2-ethylhexyl)Gly][Gly(N-(3-decanoyloxypropyl))][N(2-ethylhexyl)Gly]-NH2)	47.20%			2.01E+09 p/s	96.1%			0.140	77.4 nm			268 ng/mL	7.22E+07 p/s	7.41E+07 p/s
CCCCCCCCCCCC(=O)OCCCN(CC(=O)N(CC(=O)N(CC(=O)N(CCCOC(=O)CCCCCCCCCCC)CC(=O)N(CC(N)=O)CC(CC)CCCC)CC(CC)CCCC)CC(CC)CCCC)C(=O)CN(CC(CC)CCCC)C(=O)CN(C=O)CCCN1CCOCC1 (centres unmarked) [Compound 64] (For-[Gly(N-3-morpholinopropyl)][N(2-ethylhexyl)Gly][N(3-lauroyloxypropyl)Gly][N(2-ethylhexyl)Gly][N(2-ethylhexyl)Gly][N(3-lauroyloxypropyl)Gly][N(2-ethylhexyl)Gly]-NH2)	5.30%			6.54E+08 p/s	67.3%			0.096	77.8 nm			87 ng/mL	1.42E+08 p/s	1.33E+08 p/s
CCCCCCCCCCCC(=O)OCCCN(CC(=O)N(CC(=O)N(CC(=O)N(CCCOC(=O)CCCCCCCCCCC)CC(=O)N(CC(N)=O)CC(CC)CCCC)CC(CC)CCCC)CC(CC)CCCC)C(=O)CN(CC(CC)CCCC)C(=O)CNC(CO)CO (centres unmarked) [Compound 6] (H-[N(CH(CH2OH)2)Gly][N(2-ethylhexyl)Gly][N(3-lauroyloxypropyl)Gly][N(2-ethylhexyl)Gly][N(2-ethylhexyl)Gly][N(3-lauroyloxypropyl)Gly][N(2-ethylhexyl)Gly]-NH2)	13.73%			1.67E+09 p/s	77.1%			0.125	83.9 nm			245 ng/mL	1.22E+08 p/s	1.14E+08 p/s
CCCCCCCCCC(=O)OCCCN(CC(=O)N(CC(=O)N(CC(=O)N(CCCOC(=O)CCCCCCCCC)CC(=O)N(CC(N)=O)CC(CC)CCCC)CC(CC)CCCC)CC(CC)CCCC)C(=O)CN(CC(CC)CCCC)C(=O)CN(C=O)CCCN1CCOCC1 (centres unmarked) [Compound 106] (For-[Gly(N-3-morpholinopropyl)][N(2-ethylhexyl)Gly][Gly(N-(3-decanoyloxypropyl))][N(2-ethylhexyl)Gly][N(2-ethylhexyl)Gly][Gly(N-(3-decanoyloxypropyl))][N(2-ethylhexyl)Gly]-NH2)	5.86%			6.71E+09 p/s	80.0%			0.155	91.5 nm			471 ng/mL	1.07E+08 p/s	1.70E+08 p/s

— patent US20260373248A1, “DEGRADABLE PEPTOIDS” (Medici Therapeutics, Inc., priority 2023, published 2026)
